Results taken from patent US6503935B1, “Imidazoles and related compounds as α1A agonists” (Abbott Laboratories, priority 1998, dated 2003).
Structures can show the parent of a compound that is named as a salt. Where two headings read alike, the source gives them in different places.

Key:
[1] = tested on: Anesthetized Dogs; assay: Intraurethral pressure (IUP) in anesthetized dogs; type: in vivo, dog; settings: Canis lupus familiaris; iv dose causing a maximum increase in IUP of 5 mm Hg, anesthetized female dogs; read-out: Mean IUP ED5
[2] = target: T1, α1b (hamster receptor expressed in mouse fibroblasts) (Mesocricetus auratus, UniProt P18841); assay: Radioligand binding with [3H]-prazosin, α1b
T1 construct: expressed in transfected cells; host or cells: mouse fibroblasts
T1 sequence (P18841 1-515): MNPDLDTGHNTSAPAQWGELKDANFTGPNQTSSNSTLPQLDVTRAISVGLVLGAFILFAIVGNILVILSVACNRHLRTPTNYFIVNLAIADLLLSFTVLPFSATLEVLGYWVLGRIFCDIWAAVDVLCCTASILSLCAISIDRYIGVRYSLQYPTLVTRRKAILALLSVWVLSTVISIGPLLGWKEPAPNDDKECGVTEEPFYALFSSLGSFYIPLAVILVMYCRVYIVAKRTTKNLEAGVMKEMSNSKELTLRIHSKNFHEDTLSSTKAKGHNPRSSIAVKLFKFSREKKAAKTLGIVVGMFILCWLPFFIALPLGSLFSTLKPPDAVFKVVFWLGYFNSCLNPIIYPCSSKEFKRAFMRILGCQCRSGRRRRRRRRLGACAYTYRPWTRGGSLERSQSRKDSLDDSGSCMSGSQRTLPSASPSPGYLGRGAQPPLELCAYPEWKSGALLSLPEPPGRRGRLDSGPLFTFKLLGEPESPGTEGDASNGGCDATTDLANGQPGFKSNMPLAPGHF
Summary of the method: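 Radioligand binding with [3H]-prazosin: α1A from rat submaxillary gland; α1b hamster receptor and α1d rat receptor, each expressed in mouse fibroblasts.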

[3] = hamster receptor expressed in mouse fibroblasts, [3H]-prazosin, read-out: Radioligand Binding Ki α1b (Hamster)

With `COc1ccc(NS(C)(=O)=O)c2c1C(c1c[nH]cn1)CCC2` (centres unmarked) [Example 26, N-[5,6,7,8-tetrahydro-(1H-imidazol-4-yl)-4-methoxyy-1-naphthalenyl]methanesulfonamide, maleate] the ED (5 mmHg IUP increase) [1] was 0.653 µmol/kg.
For `CCS(=O)(=O)Nc1cccc2c1CCCC2c1c[nH]cn1.O=C(O)/C=C\C(=O)O` (single isomer, unassigned; (+)) [Example 33, (+)-N-[5-(1H-imidazol-4-yl)-5,6,7,8-tetrahydro-1-naphthalenyl]ethanesulfonamide, maleate], the Ki [2, 3] was 1.3 µM.
Compound `CCS(=O)(=O)Nc1cccc(Cc2c[nH]cn2)c1C.O=C(O)/C=C\C(=O)O` [Example 29, N-[3-(1H-imidazol-4-ylmethyl)-2-methylphenyl]ethanesulfonamide, maleate] has a Ki [2] of 3.88 µM and an ED (5 mmHg IUP increase) [1] of 0.0411 µmol/kg.
With `CC(c1cccc(NS(C)(=O)=O)c1)c1c[nH]cn1.O=C(O)/C=C\C(=O)O` (centres unmarked) [Example 31, N-[3-[1-(1H-imidazol-4-yl)ethyl]phenyl]methanesulfonamide, maleate] the ED (5 mmHg IUP increase) [1] was 0.0916 µmol/kg.
Compound `Cc1c(Cc2c[nH]cn2)cccc1NS(C)(=O)=O.O=C(O)/C=C\C(=O)O` [Example 28, N-[3-(1H-imidazol-4-ylmethyl)-2-methylphenyl]methanesulfonamide, maleate] has an ED (5 mmHg IUP increase) [1] of 0.0771 µmol/kg.
With `C=C(c1cccc(NS(=O)(=O)CC)c1)c1c[nH]cn1` [Example 45, N-{3-[1-(1H-imidazol-4-yl)vinyl]phenyly}ethanesulfonamide, maleate] the Ki [2] was 1.73 µM.
For `CCS(=O)(=O)Nc1cccc2c1CCCC2c1c[nH]cn1.O=C(O)/C=C\C(=O)O` (centres unmarked) [Example 12, N-[5-(1H-imidazol-4-yl)-5,6,7,8-tetrahydro-1-naphthalenyl]ethanesulfonamide, maleate], the Ki [2, 3] was 6.98 µM.
With `CS(=O)(=O)Nc1cccc(Cc2c[nH]cn2)c1.O=C(O)/C=C\C(=O)O` [Example 21, N-[3-(1H-imidazol-4-ylmethyl)phenyl]methanesulfonamide, maleate] the Ki [2] was 1.27 µM, the melting point was 142 to 144 °C and the ED (5 mmHg IUP increase) [1] was 0.0227 µmol/kg.
